Measured values published in paper PMC5063900, “A phase 1 study of the safety, tolerability, pharmacokinetics, and pharmacodynamics of TAK-063, a selective PDE10A inhibitor” (Psychopharmacology, 2016).

Assay: Treatment-emergent adverse events, phase 1 single-rising-dose study in healthy subjects
Type: in vivo, human
Procedure: Healthy Japanese and non-Japanese subjects between 18 and 55 years of age were recruited to participate in the study. Criteria for exclusion included prior treatment with any investigational compound within 30 days of the first TAK-063 dose, a positive test for drugs of abuse or nicotine, and an increased risk for suicide. […] Following a washout period of 7 days, subjects in cohort 3 (100 mg) received the same dose (100 mg) but under fed conditions.
The study assessed safety and tolerability in all subjects for the 4-day study duration. The primary endpoints were the percentage of subjects who experienced at least one treatment-emergent adverse event (TEAE), as well as the percentage of subjects who met predefined criteria for safety laboratory tests, vital sign measurements, and safety parameters following TAK-063 administration. The secondary endpoints were PK parameters for TAK-063 and M-I, assessing drug exposure at each dose, and the effect of food coadministration on TAK-063 PK. Exploratory endpoints included the effects of TAK-063 on domains of cognition as assessed by a computerized battery, CNS Vital Signs (CNSVS).
Adverse events, clinical laboratory tests, vital signs, 12-lead electrocardiograms (ECGs), and Columbia-Suicide Severity Rating Scale (C-SSRS) were all monitored. Intensity of AEs was classified as mild, moderate, or severe, and each AE was classified as to its relation to study drug.
Laboratory tests evaluated hematology, serum chemistry, urine, and hormone levels. Vital signs and ECGs were collected at screening, check-in, within 1 h predose, serially postdose, and at study exit, while the C-SSRS was administered at screening, check-in, and study exit. Any events reported on the C-SSRS and clinically significant laboratory abnormalities were reported as AEs.

[1] = all subjects, single 30 mg dose (n = 11)
[2] = all subjects, single 100 mg dose (n = 11)
[3] = all subjects, single 300 mg dose (n = 11)
[4] = all subjects, single 1000 mg dose (n = 11)
[5] = non-Japanese subjects, TAK-063 Total (n = 36)
[6] = non-Japanese subjects, single 3 mg dose (n = 6)
[7] = non-Japanese subjects, single 10 mg dose (n = 6)
[8] = non-Japanese subjects, single 30 mg dose (n = 6)
[9] = non-Japanese subjects, single 100 mg dose (n = 6)
[10] = non-Japanese subjects, single 300 mg dose (n = 6)
[11] = non-Japanese subjects, single 1000 mg dose (n = 6)

COc1cn(-c2ccc(-n3cccn3)cc2F)nc(-c2ccnn2-c2ccccc2)c1=O [TAK-063]
Adverse event: Somnolence [1]: 4 (36.4) n (%) | Adverse event: Vomiting [1]: 0 n (%) | Adverse event: Anxiety [2]: 0 n (%) | Adverse event: Blurred vision [2]: 0 n (%) | Adverse event: Dizziness [2]: 0 n (%) | Adverse event: Dysarthria [2]: 0 n (%) | Adverse event: Epistaxis [2]: 0 n (%) | Adverse event: Headache [2]: 1 (9.1) n (%) | Adverse event: Hypotension [2]: 1 (9.1) n (%) | Adverse event: Muscle tightness [2]: 0 n (%) | Adverse event: Nausea [2]: 0 n (%) | Adverse event: Orthostatic hypotension [2]: 1 (9.1) n (%) | Adverse event: Orthostatic tachycardia [2]: 2 (18.2) n (%) | Adverse event: Somnolence [2]: 7 (63.6) n (%) | Adverse event: Vomiting [2]: 1 (9.1) n (%) | Adverse event: Anxiety [3]: 0 n (%) | Adverse event: Blurred vision [3]: 0 n (%) | Adverse event: Dizziness [3]: 1 (9.1) n (%) | Adverse event: Dysarthria [3]: 0 n (%) | Adverse event: Epistaxis [3]: 0 n (%) | Adverse event: Headache [3]: 1 (9.1) n (%) | Adverse event: Hypotension [3]: 0 n (%) | Adverse event: Muscle tightness [3]: 0 n (%) | Adverse event: Nausea [3]: 0 n (%) | Adverse event: Orthostatic hypotension [3]: 1 (9.1) n (%) | Adverse event: Orthostatic tachycardia [3]: 1 (9.1) n (%) | Adverse event: Somnolence [3]: 5 (45.5) n (%) | Adverse event: Vomiting [3]: 1 (9.1) n (%) | Adverse event: Anxiety [4]: 1 (9.1) n (%) | Adverse event: Blurred vision [4]: 1 (9.1) n (%) | Adverse event: Dizziness [4]: 1 (9.1) n (%) | Adverse event: Dysarthria [4]: 1 (9.1) n (%) | Adverse event: Epistaxis [4]: 0 n (%) | Adverse event: Headache [4]: 0 n (%) | Adverse event: Hypotension [4]: 0 n (%) | Adverse event: Muscle tightness [4]: 0 n (%) | Adverse event: Nausea [4]: 1 (9.1) n (%) | Adverse event: Orthostatic hypotension [4]: 5 (45.5) n (%) | Adverse event: Orthostatic tachycardia [4]: 7 (63.6) n (%) | Adverse event: Somnolence [4]: 6 (54.5) n (%) | Adverse event: Vomiting [4]: 1 (9.1) n (%) | Total incidence of TEAEs (non-Japanese subjects treated with TAK-063): 52.8% | Adverse event: Anxiety [5]: 1 (2.8) n (%) | Adverse event: Blurred vision [5]: 1 (2.8) n (%) | Adverse event: Dizziness [5]: 2 (5.6) n (%) | Adverse event: Dysarthria [5]: 1 (2.8) n (%) | Adverse event: Headache [5]: 1 (2.8) n (%) | Adverse event: Hypotension [5]: 1 (2.8) n (%) | Adverse event: Nausea [5]: 2 (5.6) n (%) | Adverse event: Orthostatic hypotension [5]: 3 (8.3) n (%) | Adverse event: Orthostatic tachycardia [5]: 8 (22.2) n (%) | Adverse event: Somnolence [5]: 12 (33.3) n (%) | Adverse event: Vomiting [5]: 1 (2.8) n (%) | Adverse event: Anxiety [6]: 0 n (%) | Adverse event: Blurred vision [6]: 0 n (%) | Adverse event: Dizziness [6]: 0 n (%) | Adverse event: Dysarthria [6]: 0 n (%) | Adverse event: Headache [6]: 0 n (%) | Adverse event: Hypotension [6]: 0 n (%) | Adverse event: Nausea [6]: 0 n (%) | Adverse event: Orthostatic hypotension [6]: 0 n (%) | Adverse event: Orthostatic tachycardia [6]: 2 (33.3) n (%) | Adverse event: Somnolence [6]: 0 n (%) | Adverse event: Vomiting [6]: 0 n (%) | Adverse event: Anxiety [7]: 0 n (%) | Adverse event: Blurred vision [7]: 0 n (%) | Adverse event: Dizziness [7]: 0 n (%) | Adverse event: Dysarthria [7]: 0 n (%) | Adverse event: Headache [7]: 0 n (%) | Adverse event: Hypotension [7]: 0 n (%) | Adverse event: Nausea [7]: 0 n (%) | Adverse event: Orthostatic hypotension [7]: 0 n (%) | Adverse event: Orthostatic tachycardia [7]: 0 n (%) | Adverse event: Somnolence [7]: 0 n (%) | Adverse event: Vomiting [7]: 0 n (%) | Adverse event: Anxiety [8]: 0 n (%) | Adverse event: Blurred vision [8]: 0 n (%) | Adverse event: Dizziness [8]: 1 (16.7) n (%) | Adverse event: Dysarthria [8]: 0 n (%) | Adverse event: Headache [8]: 0 n (%) | Adverse event: Hypotension [8]: 0 n (%) | Adverse event: Nausea [8]: 2 (33.3) n (%) | Adverse event: Orthostatic hypotension [8]: 0 n (%) | Adverse event: Orthostatic tachycardia [8]: 0 n (%) | Adverse event: Somnolence [8]: 3 (50.0) n (%) | Adverse event: Vomiting [8]: 0 n (%) | Adverse event: Anxiety [9]: 0 n (%) | Adverse event: Blurred vision [9]: 0 n (%) | Adverse event: Dizziness [9]: 0 n (%) | Adverse event: Dysarthria [9]: 0 n (%) | Adverse event: Headache [9]: 0 n (%) | Adverse event: Hypotension [9]: 1 (16.7) n (%) | Adverse event: Nausea [9]: 0 n (%) | Adverse event: Orthostatic hypotension [9]: 0 n (%) | Adverse event: Orthostatic tachycardia [9]: 2 (33.3) n (%) | Adverse event: Somnolence [9]: 3 (50.0) n (%) | Adverse event: Vomiting [9]: 0 n (%) | Adverse event: Anxiety [10]: 0 n (%) | Adverse event: Blurred vision [10]: 0 n (%) | Adverse event: Dizziness [10]: 1 (16.7) n (%) | Adverse event: Dysarthria [10]: 0 n (%) | Adverse event: Headache [10]: 1 (16.7) n (%) | Adverse event: Hypotension [10]: 0 n (%) | Adverse event: Nausea [10]: 0 n (%) | Adverse event: Orthostatic hypotension [10]: 0 n (%) | Adverse event: Orthostatic tachycardia [10]: 0 n (%) | Adverse event: Somnolence [10]: 3 (50.0) n (%) | Adverse event: Vomiting [10]: 1 (16.7) n (%) | Adverse event: Anxiety [11]: 1 (16.7) n (%) | Adverse event: Blurred vision [11]: 1 (16.7) n (%) | Adverse event: Dizziness [11]: 0 n (%) | Adverse event: Dysarthria [11]: 1 (16.7) n (%) | Adverse event: Headache [11]: 0 n (%) | Adverse event: Hypotension [11]: 0 n (%) | Adverse event: Nausea [11]: 0 n (%) | Adverse event: Orthostatic hypotension [11]: 3 (50.0) n (%) | Adverse event: Orthostatic tachycardia [11]: 4 (66.7) n (%) | Adverse event: Somnolence [11]: 3 (50.0) n (%) | Adverse event: Vomiting [11]: 0 n (%) | Association with hyperprolactinemia, hyperglycemia, or other metabolic disturbances (single dose): not associated | Deaths, serious AEs (single doses 3 to 1000 mg): No deaths or other serious AEs were reported | Maximum tolerated dose (single doses up to 1000 mg): not defined | Safety and tolerability (single doses up to 1000 mg): safe and well tolerated
